From US8883836B2, “Solid forms of bendamustine hydrochloride” (Cephalon, Inc., priority 2008, dated 2014)

Legend:
[1] = Storage of solid forms under temperature/humidity or ambient conditions, XRPD re-analysis; assay type: physicochemical
[2] = Stability of Forms 1 and 2 (temperature/humidity storage, XRPD); assay type: physicochemical
Description: Stability of Forms 1 and 2 of Bendamustine Hydrochloride
10 mg of bendamustine hydrochloride Form 1 (A), bendamustine hydrochloride Form 2 (B), and a 1:1 mixture of Forms 1 and 2 (C) were stored under the conditions listed in Table 7. Samples were analyzed by XRPD at 1 day, 2 week, and 6 week time points. […] The rate of this conversion appears to increase with temperature. The purity of Forms 1 and 2 after storage at 4° C./87% RH (5) and 60° C./75% RH (13) for 6 weeks was measured.

[3] = Thermodynamic Aqueous Solubility by HPLC; assay type: physicochemical
Description: Thermodynamic Aqueous Solubility by HPLC
Aqueous solubility was determined by suspending sufficient compound in 0.25 ml of water to give a maximum final concentration of ≧10 mg·ml^−1 of the parent free-form of the compound. The suspension was equilibrated at 25° C. for 24 hours (unless otherwise stated) after which the pH was measured. The suspension was then filtered through a glass fibre C filter into a 96 well plate. The filtrate was then diluted by a factor of 100 times. Quantitation was by HPLC with reference to a standard solution of approximately 0.1 mg·ml-1 in DMSO. Different volumes of the standard, diluted and undiluted sample solutions were injected. The solubility was calculated using the peak areas determined by integration of the peak found at the same retention time as the principal peak in the standard injection.

[4] = Maturation Experiment (slurry of Form 1 in solvents, XRPD); assay type: physicochemical; conditions: slurry 48 hours, 4 hour periods at 50 C and ambient
Description: Approximately 10 mg of Form 1 bendamustine hydrochloride was slurried in the solvents list in Table 3. The slurries were shaken for 48 hours with alternating 4 hour periods at 50 C and ambient temperature. Any solid material was then isolated by filtration and analyzed by XRPD. Solutions were allowed to evaporate.

[5] = pKa Determination (Sirius GlpKa, UV); assay type: physicochemical; conditions: by UV in aqueous conditions, 25° C.
Description: pKa Determination and Prediction
Data were collected on a Sirius GlpKa instrument with a D-PAS attachment. Measurements were made at 25° C. in aqueous solution by UV. The compound was initially dissolved in DMSO at 5 mg/ml of which 50 μl (0.25 mg) was used for the titration from pH 1.3 to 9.0. The titration media was ionic-strength adjusted (ISA) with 0.15 M KCl (aq). The data were refined using Refinement Pro software v1.0. Prediction of pKa values was made using ACD pKa prediction software v9.

[6] = Log P Determination (potentiometric titration, octanol:ISA water); assay type: physicochemical
Excerpt: Data were collected by potentiometric titration on a Sirius GlpKa instrument using three ratios of octanol:ionic-strength adjusted (ISA) water to generate Log P, Log Pion, and Log D values. The data were refined using Refinement Pro software v1.0. Prediction of Log P values was made using ACD v9 and Syracuse KOWWIN v1.67 software.

[7] = Light Stability (Suntest Light Box); assay type: physicochemical; conditions: for Purity (%): HPLC
Description: Light Stability of Bendamustine Hydrochloride
Samples of Form 1 and Form 2 of Bendamustine Hydrochloride were stressed in a Suntest Light Box with a light intensity of 250 watts/m2 for 1 week with the black body temperature set to 25° C. A blank of each sample, wrapped in foil for protection, was also included in the experiment. After the experiment, samples were analyzed by XRPD and the purity was determined by HPLC.

[8] = Preparation of solutions: solubility of Form 1 in solvents; conditions: for Volume Added: 50 mg Form 1, aliquots with heating to 50° C. until clear solution
Description: Preparation of Solutions of Bendamustine Hydrochloride
50 mg of bendamustine hydrochloride Form 1 was weighed into a screw-top vial. Solvent was added in aliquots (with heating to 50° C.) until a clear solution was obtained.

[9] = light stressed, 250 watts/m2, 1 week, hydrochloride

In the case of `Cl.Cn1c(CCCC(=O)O)nc2cc(N(CCCl)CCCl)ccc21` [Form 1, bendamustine hydrochloride], the “change on storage (XRPD)” value ([1]; 1 week at 40° C./75% RH, hydrochloride) is reported as “no significant changes”, the “change on storage (XRPD)” value ([1]; 2 months at 25° C./94% RH) is reported as “converted to a hydrate of bendamustine hydrochloride (Form 2)” and the “change on storage (XRPD)” value ([1]; 3 weeks at 40° C./11% RH) is reported as “no significant changes”. The “change on storage (XRPD)” value ([1]; one month at 25° C./94% RH) was “in the process of converting to Form 2”, the purity after storage ([2]; 4° C./87% RH (5) and 60° C./75% RH (13) for 6 weeks) was “No large purity decreases” and the “kinetic stability on storage” value ([2]; 6 weeks at 4° C./34 to 76% RH, 25° C./43 to 75% RH and 60° C./11 to 75% RH) was “kinetically stable”. The “form conversion on storage at high humidity” value ([2]; 60° C./95% RH, 25° C. 94% RH and possibly 4° C./88% RH for 6, 6 and 2 weeks respectively) was “conversion of Form 1 to 2”, the “form conversion under high humidity conditions” value ([2]; ~90% RH, rate appears to increase with temperature) was “conversion of Form 1 of bendamustine hydrochloride to Form 2 was observed” and the “solution pH” value ([3]; saturated aqueous solution of the solubility experiment) was 2.16. The “degradation of sample in aqueous solubility experiment” value ([3]; water) was “significant degradation occurred”, the aqueous solubility ([3]; water, 25° C., 24 hours, significant degradation occurred) was 4.5 mg/mL and the “XRPD Analysis after maturation” value ([4]; Acetone) was “Form 1”. For the same molecule, the “XRPD Analysis after maturation” value ([4]; Acetonitrile) was “Form 1”, the “XRPD Analysis after maturation” value ([4]; Anisole) was “Form 1” and the “XRPD Analysis after maturation” value ([4]; DCM) was “Form 1”. For the same molecule, the “XRPD Analysis after maturation” value ([4]; DIPE) was “Form 1”, the “XRPD Analysis after maturation” value ([4]; Diethyl ether) was “Form 1” and the “XRPD Analysis after maturation” value ([4]; Dioxane) was “Form 1”. The “XRPD Analysis after maturation” value ([4]; Ethanol) was “Form 1”, the “XRPD Analysis after maturation” value ([4]; Ethyl acetate) was “Form 1” and the “XRPD Analysis after maturation” value ([4]; Heptane) was “Form 1”. For the same molecule, the “XRPD Analysis after maturation” value ([4]; IPA) was “Form 1”, the “XRPD Analysis after maturation” value ([4]; Isopropyl acetate) was “Form 1” and the “XRPD Analysis after maturation” value ([4]; MIBK) was “Form 1”. The “XRPD Analysis after maturation” value ([4]; Methyl acetate) was “Form 1”, the “XRPD Analysis after maturation” value ([4]; Nitromethane) was “Form 1” and the “XRPD Analysis after maturation” value ([4]; TBME) was “Form 1”. For the same molecule, the “XRPD Analysis after maturation” value ([4]; THF) was “Form 1”, the “XRPD Analysis after maturation” value ([4]; Toluene) was “Form 1” and the “XRPD Analysis after maturation” value ([4]; Water) was “degradant”. The “pKa (Acid)” value [5] was 4.17, the LogP ([6]; octanol:ISA water) was 1.10 and the LogD ([6]; pH7.4) was 0.68. The “change in crystallinity and purity during light stress test” value ([7]; 250 watts/m2, 1 week, 25° C., hydrochloride) was “only a slight decrease in purity”, the “stability to degradation in light” value ([7]; as compared to Form 2) was “more stable to degradation in light” and the XRPD ([7]; blank wrapped in foil, 1 week in light box) was “No change”. The “Purity (%)” value ([7]; blank wrapped in foil, 1 week in light box, listed as Form 1 blank, hydrochloride) was 97.3%, the “Purity (%)” value [7, 9] was 95.9% and the XRPD [7, 9] was “No change (sample brown in colour)”. The “Solution Obtained?” value ([8]; Acetic acid, 50 mg in 1 ml) was “Yes (50° C.)”, the “Volume Added” value ([8]; Acetic acid) was 1000 µL and the “Solution Obtained?” value ([8]; DMA, 50 mg in 500 μl) was “Yes (50° C.)”. The “Volume Added” value ([8]; DMA) was 500 µL, the “Solution Obtained?” value ([8]; DMF, 50 mg in 500 μl) was “Yes (50° C.)” and the “Volume Added” value ([8]; DMF) was 500 µL. For the same molecule, the “Solution Obtained?” value ([8]; DMSO, 50 mg in 100 μl) was “Yes (50° C.)”, the “Volume Added” value ([8]; DMSO) was 100 µL and the “Solution Obtained?” value ([8]; Ethanol, 50 mg in 1 ml) was “Yes (50° C.)”. The “Volume Added” value ([8]; Ethanol) was 1000 µL, the “Solution Obtained?” value ([8]; Formamide, 50 mg in 1 ml) was “Yes (50° C.)” and the “Volume Added” value ([8]; Formamide) was 1000 µL. The “Solution Obtained?” value ([8]; Methanol, 50 mg in 100 μl) was “Yes (50° C.)” and the “Volume Added” value ([8]; Methanol) was 100 µL.
